Each block holds one compound with its values, some of them ahead of it.
Tests used:
[1] = biological target: T1, Endothelin receptor type B (Homo sapiens, UniProt P24530)
T1 sequence (P24530 whole entry): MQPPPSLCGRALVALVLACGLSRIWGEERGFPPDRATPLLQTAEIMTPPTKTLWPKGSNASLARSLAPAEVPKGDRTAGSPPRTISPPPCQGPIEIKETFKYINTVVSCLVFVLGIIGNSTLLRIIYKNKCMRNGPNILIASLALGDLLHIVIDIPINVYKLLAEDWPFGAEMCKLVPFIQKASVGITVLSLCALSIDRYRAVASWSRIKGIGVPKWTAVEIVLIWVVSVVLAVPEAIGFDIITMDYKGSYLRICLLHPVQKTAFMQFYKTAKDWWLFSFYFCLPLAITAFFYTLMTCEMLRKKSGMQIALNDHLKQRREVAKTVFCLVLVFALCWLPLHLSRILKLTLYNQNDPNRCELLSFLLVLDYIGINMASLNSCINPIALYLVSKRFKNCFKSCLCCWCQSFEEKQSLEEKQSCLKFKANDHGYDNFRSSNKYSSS

Estrogen receptor beta = Estrogen receptor beta (Homo sapiens, UniProt Q92731)
[2] = biological target: T2, Neuropeptide Y receptor type 2 (Homo sapiens, UniProt P49146)
T2 sequence (P49146 whole entry): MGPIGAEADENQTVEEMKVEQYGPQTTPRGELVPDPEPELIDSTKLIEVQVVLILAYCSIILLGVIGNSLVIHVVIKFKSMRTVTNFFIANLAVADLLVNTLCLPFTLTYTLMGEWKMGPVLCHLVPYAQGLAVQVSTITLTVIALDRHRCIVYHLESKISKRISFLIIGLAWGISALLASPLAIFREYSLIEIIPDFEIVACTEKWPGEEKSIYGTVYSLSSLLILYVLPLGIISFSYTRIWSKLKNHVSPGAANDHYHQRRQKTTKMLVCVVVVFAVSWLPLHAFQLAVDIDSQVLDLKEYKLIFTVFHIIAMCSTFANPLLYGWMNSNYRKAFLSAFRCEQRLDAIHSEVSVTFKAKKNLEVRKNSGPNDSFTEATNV

[3] = biological target: Neurotensin receptor type 1 (Homo sapiens, UniProt P30989)
[4] = biological target: Gamma-aminobutyric acid type B receptor subunit 1 (Homo sapiens, UniProt Q9UBS5)
[5] = biological target: T3, Muscarinic acetylcholine receptor M5 (Homo sapiens, UniProt P08912)
T3 sequence (P08912 whole entry): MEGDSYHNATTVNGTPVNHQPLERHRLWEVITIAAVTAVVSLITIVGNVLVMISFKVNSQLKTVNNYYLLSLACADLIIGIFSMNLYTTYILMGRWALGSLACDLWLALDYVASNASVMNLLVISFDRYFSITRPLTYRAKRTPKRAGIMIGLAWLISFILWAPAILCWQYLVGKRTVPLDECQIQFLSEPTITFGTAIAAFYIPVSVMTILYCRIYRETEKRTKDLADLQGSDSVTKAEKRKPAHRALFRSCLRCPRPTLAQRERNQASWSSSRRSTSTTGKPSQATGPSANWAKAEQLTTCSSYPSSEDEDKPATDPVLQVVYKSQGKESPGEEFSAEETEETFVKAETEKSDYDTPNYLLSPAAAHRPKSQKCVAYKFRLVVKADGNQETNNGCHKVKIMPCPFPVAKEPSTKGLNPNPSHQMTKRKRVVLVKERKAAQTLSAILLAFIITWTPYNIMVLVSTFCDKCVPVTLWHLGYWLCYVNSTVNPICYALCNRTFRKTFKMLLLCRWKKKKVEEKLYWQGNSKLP

Androgen receptor [6] = biological target: T4, Androgen receptor (Rattus norvegicus, UniProt P15207); type: functional
T4 sequence (P15207 whole entry): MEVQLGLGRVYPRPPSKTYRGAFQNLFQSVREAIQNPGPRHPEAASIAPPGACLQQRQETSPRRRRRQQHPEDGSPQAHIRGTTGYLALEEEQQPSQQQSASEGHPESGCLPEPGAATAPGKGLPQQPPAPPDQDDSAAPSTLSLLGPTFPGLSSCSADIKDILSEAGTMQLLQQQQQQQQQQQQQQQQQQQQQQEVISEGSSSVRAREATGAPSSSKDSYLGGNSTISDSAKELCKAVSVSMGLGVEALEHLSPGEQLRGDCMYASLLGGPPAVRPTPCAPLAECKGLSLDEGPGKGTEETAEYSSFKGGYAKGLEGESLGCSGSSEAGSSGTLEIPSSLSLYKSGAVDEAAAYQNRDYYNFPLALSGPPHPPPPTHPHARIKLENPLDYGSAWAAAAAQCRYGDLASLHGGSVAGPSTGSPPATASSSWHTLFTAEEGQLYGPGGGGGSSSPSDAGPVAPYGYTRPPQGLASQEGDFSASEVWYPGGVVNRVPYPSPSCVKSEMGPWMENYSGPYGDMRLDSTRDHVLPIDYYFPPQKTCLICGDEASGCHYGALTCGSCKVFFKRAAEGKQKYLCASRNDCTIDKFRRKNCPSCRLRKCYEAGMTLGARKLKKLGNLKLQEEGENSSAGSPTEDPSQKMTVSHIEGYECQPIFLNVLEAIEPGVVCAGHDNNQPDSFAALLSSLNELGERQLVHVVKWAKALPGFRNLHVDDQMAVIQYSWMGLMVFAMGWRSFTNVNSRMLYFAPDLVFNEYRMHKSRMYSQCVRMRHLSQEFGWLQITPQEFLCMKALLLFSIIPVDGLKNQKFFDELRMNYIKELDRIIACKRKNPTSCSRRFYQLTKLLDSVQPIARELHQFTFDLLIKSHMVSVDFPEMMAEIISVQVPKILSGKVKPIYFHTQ

[7] = biological target: Sodium channel protein type 5 subunit alpha (Homo sapiens, UniProt Q14524); type: functional, cell-based
[8] = biological target: Voltage-dependent L-type calcium channel subunit alpha-1C (Homo sapiens, UniProt Q13936); type: functional, cell-based
Androgen receptor [9] = biological target: T4, Androgen receptor
[10] = biological target: 5-hydroxytryptamine receptor 2A (Homo sapiens, UniProt P28223)
Note: assay procedure not described here.

Chain of Voltage-dependent L-type calcium channel subunit alpha-1C (Q13936 whole entry): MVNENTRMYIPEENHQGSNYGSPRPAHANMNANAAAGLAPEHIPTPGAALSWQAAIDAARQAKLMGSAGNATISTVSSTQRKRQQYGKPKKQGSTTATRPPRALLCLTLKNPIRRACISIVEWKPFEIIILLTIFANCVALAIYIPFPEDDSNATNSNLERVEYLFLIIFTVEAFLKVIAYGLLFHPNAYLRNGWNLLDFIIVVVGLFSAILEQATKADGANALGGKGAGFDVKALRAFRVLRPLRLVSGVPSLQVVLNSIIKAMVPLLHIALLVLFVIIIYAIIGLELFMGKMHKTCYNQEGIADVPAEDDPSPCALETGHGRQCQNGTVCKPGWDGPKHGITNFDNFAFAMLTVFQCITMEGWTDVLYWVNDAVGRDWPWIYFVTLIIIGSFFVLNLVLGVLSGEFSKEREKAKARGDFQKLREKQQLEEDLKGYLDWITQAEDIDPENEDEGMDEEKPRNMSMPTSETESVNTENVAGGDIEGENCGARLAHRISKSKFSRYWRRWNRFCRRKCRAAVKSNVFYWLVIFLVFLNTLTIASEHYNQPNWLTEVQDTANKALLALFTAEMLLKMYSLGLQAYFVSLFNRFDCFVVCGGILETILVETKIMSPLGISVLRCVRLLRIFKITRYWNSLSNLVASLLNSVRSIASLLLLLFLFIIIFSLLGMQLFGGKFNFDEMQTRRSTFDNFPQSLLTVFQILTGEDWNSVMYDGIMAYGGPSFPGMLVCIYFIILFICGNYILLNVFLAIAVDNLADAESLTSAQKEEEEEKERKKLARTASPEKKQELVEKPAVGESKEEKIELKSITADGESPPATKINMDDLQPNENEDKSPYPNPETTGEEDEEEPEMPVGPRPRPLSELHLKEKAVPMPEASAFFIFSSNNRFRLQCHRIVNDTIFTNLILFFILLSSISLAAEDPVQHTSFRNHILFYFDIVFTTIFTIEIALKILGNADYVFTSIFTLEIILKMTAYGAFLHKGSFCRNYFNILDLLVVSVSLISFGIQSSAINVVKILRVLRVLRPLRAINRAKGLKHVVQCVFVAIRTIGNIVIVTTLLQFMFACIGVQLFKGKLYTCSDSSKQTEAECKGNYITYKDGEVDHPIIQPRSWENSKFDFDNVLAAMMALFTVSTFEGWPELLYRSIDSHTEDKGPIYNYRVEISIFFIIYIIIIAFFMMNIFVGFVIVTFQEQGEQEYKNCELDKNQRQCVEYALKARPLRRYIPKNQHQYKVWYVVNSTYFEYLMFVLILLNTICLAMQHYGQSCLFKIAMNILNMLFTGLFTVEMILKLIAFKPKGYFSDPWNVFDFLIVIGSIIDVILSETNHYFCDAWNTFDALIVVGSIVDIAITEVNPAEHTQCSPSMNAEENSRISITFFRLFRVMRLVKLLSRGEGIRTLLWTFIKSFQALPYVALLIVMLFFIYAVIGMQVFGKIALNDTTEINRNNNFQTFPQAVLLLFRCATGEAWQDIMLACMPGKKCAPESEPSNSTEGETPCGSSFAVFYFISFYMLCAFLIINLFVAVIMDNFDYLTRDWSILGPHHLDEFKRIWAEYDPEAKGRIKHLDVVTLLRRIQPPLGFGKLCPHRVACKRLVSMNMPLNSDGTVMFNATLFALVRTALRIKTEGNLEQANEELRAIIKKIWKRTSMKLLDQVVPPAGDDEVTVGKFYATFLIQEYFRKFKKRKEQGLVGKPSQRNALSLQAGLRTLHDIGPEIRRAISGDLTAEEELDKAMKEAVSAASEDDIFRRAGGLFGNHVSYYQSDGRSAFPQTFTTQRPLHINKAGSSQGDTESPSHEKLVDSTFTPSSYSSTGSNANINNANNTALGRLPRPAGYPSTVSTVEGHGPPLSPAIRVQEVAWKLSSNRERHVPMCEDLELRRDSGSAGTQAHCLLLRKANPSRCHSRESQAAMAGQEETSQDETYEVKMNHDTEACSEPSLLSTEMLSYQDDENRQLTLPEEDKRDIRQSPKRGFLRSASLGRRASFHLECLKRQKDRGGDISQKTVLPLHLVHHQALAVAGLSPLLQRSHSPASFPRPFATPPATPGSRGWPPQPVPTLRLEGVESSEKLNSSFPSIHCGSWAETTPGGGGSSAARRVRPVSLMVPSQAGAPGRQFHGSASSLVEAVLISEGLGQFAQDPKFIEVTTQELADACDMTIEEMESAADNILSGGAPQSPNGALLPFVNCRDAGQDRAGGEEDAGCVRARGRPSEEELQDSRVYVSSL
Chain of Estrogen receptor beta (Q92731 whole entry): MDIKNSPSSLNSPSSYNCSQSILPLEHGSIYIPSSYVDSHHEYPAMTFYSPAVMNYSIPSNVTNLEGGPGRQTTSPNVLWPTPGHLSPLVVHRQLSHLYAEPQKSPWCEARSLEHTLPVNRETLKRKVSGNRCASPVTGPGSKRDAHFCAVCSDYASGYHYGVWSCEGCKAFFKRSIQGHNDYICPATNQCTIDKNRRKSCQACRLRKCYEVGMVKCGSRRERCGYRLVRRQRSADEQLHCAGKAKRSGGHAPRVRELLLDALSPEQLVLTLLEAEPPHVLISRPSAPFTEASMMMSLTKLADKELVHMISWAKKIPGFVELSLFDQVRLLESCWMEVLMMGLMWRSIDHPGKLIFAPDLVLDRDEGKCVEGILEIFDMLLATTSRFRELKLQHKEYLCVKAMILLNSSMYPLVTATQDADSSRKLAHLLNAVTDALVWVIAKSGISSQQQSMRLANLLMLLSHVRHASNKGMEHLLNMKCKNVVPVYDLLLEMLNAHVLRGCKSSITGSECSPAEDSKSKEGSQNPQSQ
Chain of Gamma-aminobutyric acid type B receptor subunit 1 (Q9UBS5 whole entry): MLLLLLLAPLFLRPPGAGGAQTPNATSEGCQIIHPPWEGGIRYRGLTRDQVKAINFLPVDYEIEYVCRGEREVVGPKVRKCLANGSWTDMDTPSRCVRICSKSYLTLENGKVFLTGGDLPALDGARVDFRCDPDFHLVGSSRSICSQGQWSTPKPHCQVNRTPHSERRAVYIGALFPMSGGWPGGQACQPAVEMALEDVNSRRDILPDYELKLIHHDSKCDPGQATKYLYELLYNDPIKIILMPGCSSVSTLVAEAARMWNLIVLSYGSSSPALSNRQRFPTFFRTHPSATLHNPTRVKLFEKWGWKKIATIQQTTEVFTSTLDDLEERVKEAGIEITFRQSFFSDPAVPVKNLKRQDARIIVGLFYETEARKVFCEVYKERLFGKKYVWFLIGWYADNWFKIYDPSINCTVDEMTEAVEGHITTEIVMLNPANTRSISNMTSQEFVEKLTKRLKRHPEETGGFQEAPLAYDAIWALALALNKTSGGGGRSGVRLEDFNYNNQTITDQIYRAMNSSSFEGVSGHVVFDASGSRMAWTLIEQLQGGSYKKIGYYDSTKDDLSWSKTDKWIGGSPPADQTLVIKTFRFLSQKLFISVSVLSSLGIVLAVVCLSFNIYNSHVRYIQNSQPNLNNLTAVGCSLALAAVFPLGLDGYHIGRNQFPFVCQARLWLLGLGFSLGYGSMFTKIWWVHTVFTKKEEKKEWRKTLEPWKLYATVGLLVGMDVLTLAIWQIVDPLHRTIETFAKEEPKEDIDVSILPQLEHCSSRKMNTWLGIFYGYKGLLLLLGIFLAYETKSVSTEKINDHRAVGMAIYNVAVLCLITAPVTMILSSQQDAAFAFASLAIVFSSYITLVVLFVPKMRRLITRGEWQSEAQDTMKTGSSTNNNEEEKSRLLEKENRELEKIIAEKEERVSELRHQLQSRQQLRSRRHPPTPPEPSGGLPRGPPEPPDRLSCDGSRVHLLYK
Chain of 5-hydroxytryptamine receptor 2A (P28223 whole entry): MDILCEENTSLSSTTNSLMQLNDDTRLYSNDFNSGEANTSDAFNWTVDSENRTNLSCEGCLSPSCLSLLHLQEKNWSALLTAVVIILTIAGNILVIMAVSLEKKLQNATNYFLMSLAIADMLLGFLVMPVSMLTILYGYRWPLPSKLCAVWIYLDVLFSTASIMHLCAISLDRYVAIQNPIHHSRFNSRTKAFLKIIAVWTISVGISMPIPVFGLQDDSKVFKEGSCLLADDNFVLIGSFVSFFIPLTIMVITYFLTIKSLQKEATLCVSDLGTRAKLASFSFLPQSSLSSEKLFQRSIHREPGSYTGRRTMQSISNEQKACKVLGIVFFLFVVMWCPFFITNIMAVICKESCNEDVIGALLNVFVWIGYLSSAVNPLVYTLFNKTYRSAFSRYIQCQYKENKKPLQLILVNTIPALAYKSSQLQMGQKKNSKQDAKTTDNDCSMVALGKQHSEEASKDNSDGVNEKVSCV
Chain of Neurotensin receptor type 1 (P30989 whole entry): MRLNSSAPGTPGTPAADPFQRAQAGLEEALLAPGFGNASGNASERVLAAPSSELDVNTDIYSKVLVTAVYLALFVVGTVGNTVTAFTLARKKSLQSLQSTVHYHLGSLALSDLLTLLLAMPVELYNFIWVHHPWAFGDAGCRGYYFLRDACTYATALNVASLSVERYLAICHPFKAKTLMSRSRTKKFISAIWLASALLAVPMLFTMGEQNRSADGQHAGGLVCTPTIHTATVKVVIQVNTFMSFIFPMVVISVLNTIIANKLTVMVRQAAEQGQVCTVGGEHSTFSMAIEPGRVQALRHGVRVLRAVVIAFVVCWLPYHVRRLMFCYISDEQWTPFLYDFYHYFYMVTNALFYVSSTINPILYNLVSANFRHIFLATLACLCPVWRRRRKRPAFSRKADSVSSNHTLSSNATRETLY

SMILES: N=C(N)NC(=O)c1nc(Cl)c(N)nc1N [AMILORIDE]
AC50 [1]: > 30 µM
AC50 (Estrogen receptor beta): > 30 µM
AC50 [2]: > 30 µM
AC50 [3]: > 30 µM
AC50 [4]: > 10 µM
AC50 [5]: > 10 µM

AC50 (Androgen receptor [6]): > 30 µM
SMILES: C[C@]12C=CC(=O)C=C1C(Cl)=C[C@@H]1[C@@H]2[C@@H](O)C[C@@]2(C)[C@H]1CC[C@]2(O)C(=O)CO [CLOPREDNOL]

SMILES: COc1cccc2c1C(=O)c1c(O)c3c(c(O)c1C2=O)C[C@@](O)(C(=O)CO)C[C@@H]3O[C@H]1C[C@H](N)[C@H](O)[C@H](C)O1 [DOXORUBICIN]
AC50 [7]: > 50 µM
AC50 [8]: > 50 µM

AC50 (Androgen receptor [6]): > 30 µM
SMILES: CC(C)(Oc1ccc(Cl)cc1)C(=O)OCCOC(=O)c1cccnc1 [ETOFIBRATE]

AC50 [1]: > 30 µM
AC50 (Estrogen receptor beta): > 30 µM
AC50 [2]: > 30 µM
AC50 [3]: > 30 µM
SMILES: C[C@]12C=CC(=O)C=C1CC[C@@H]1[C@@H]2[C@@H](O)C[C@@]2(C)[C@H]1CC[C@]2(O)C(=O)CO [PREDNISOLONE]

AC50 (Androgen receptor [9]): > 30 µM
AC50 [10]: 0.0233 µM
SMILES: CCC(=O)c1ccc2c(c1)N(CC(C)N(C)C)c1ccccc1S2 (configuration not stated) [PROPIOMAZINE]

AC50 (Androgen receptor [9]): 4.35 µM
SMILES: CN(C)[C@@H]1C(O)=C(C(=O)NCN2CCCC2)C(=O)[C@@]2(O)C(O)=C3C(=O)c4c(O)cccc4[C@@](C)(O)[C@H]3C[C@@H]12 [ROLITETRACYCLINE]

SMILES: C[C@@H]1CN(c2c(F)c(N)c3c(=O)c(C(=O)O)cn(C4CC4)c3c2F)C[C@H](C)N1 [SPARFLOXACIN]
AC50 [7]: > 50 µM
AC50 [8]: > 50 µM

SMILES: Cc1ccc(O)c([C@H](CCN(C(C)C)C(C)C)c2ccccc2)c1 [TOLTERODINE]
AC50 [10]: 8.84 µM
AC50 [4]: > 10 µM
AC50 [5]: 0.0065 µM
